{"source": "patent US12246071B2", "about": "“Brain-penetrating ligand and drug carrier” (priority 2018, dated 2025)", "key": {"[1]": {"experiment": "Organ distribution of fluorescently labeled Lac-HP-β-CyD after intravenous injection (IVIS)", "type": "in vivo, BALB/c mouse", "conditions": "HiLyte-labeled, 10 mg/kg intravenous, BALB/c mice, 10 minutes", "protocol": "BALB/c mice (8 weeks old, male, 20 g) were intravenously injected with HiLyte-HP-β-CyD (DS4.4) or HiLyte-Lac-HP-β-CyD (DSL3.0) at a dose of 10 mg/kg. After 10 minutes, the mice were euthanized, perfused with PBS and each organ was collected. Each organ was observed by IVIS."}, "SH-SY5Y cells [2]": {"tested_on": "SH-SY5Y cells", "experiment": "Cholesterol leakage from U18666A-treated cells", "type": "cell-based, human", "conditions": "1.0, 10.0 and 20.0 mM, 2 hours, 37° C., after U18666A 7.5 μM", "protocol": "SH-SY5Y cells (1.0×10^5 cells), which are human neuroblasts, were seeded in a 24-well plate, incubated at 37° C. for 24 hours, then, washed with PBS, and a medium supplemented with U18666A (7.5 μM) was added, and it was incubated for an additional 24 hours. Then, washed with PBS, and 150 μL of a medium (HBSS, FBS (−)) containing HP-3-CyD (DS4.4) (1.0, 10.0 and 20.0 mM) or Lac-HP-β-CyD (DSL3.0) (1.0, 10.0 and 20.0 mM) was added. After incubating at 37° C. for 2 hours, the supernatant was collected and centrifuged (10,000). The cholesterol concentration and phospholipid concentration in the obtained supernatant were measured with cholesterol E-Test wako and phospholipid C-Test wako."}, "SH-SY5Y cells [3]": {"tested_on": "SH-SY5Y cells", "experiment": "Intracellular accumulation of amyloid β", "type": "cell-based, human", "conditions": "1 mM, 24 hours, after U18666A 7.5 μM and HiLyte488-Aβ 250 nM", "protocol": "Using SH-SY5Y cells, the amyloid β accumulation in the cells was measured. SH-SY5Y cells were seeded at 1.0×10^4 cells/glass dish and incubated at 37° C. for 24 hours. Then, washed with PBS, 150 μL of a medium containing U18666A (7.5 μM) and HiLyte488-Aβ (purchased from AnaSpec) (250 nM) was added and incubated at 37° C. for 24 hours. After washing with PBS, 200 μL of a medium containing HP-β-CyD (DS4.4.1 mM) or Lac-HP-β-CyD (DSL3.0, 1 mM) was added, and the mixture was incubated at 37° C. for 24 hours. After washing with PBS, 200 μL of a medium supplemented with Lysostacker (registered trademark) (final concentration: 100 nM) was added. After incubating for 30 minutes, it was fixed with 4% paraformaldehyde and the FIlipin solution was added."}, "hCMEC/D3 cells": {"tested_on": "hCMEC/D3 cells", "experiment": "Uptake of HiLyte-labeled Lac-HP-β-CyD into brain capillary endothelial cells (confocal microscope)", "type": "cell-based, human", "conditions": "1 mM, 1 hour, 37° C.", "protocol": "Lac-HP-β-CyD (DSL3.0) and the control HP-β-CyD […] were labeled with HiLyte fluorescent dye according to the manufacturer's manual. The following experiments were carried out using these.\nUsing hCMEC/D3 cells, which are human brain capillary endothelial cells, the uptake of Lac-HP-β-CyD into cells was confirmed. hCMEC/D3 cells were seeded at 1.0×10^4 cells/glass dish and incubated at 37° C. for 24 hours. Then, it was washed with PBS, and 150 μL of a medium containing HiLyte-HP-β-CyD (DS4.4, 1 mM) or HiLyte-Lac-HP-β-CyD (DSL3.0, 1 mM) was added, and incubated at 37° C. for 1 hour. After washing with PBS, it was fixed with 4% paraformaldehyde."}, "SH-SY5Y cells [4]": {"tested_on": "SH-SY5Y cells", "experiment": "Uptake into SH-SY5Y cells after permeation of the hCMEC/D3 monolayer", "type": "cell-based, human", "conditions": "HiLyte-labeled, 1 mM on upper side, 60 minutes", "protocol": "hCMEC/D3 cells were seeded in the upper component of a transwell at 2.0×10^5 cells/well, incubated at 37° C. for 5 days, then, the transepithelial electrical resistance (TEER) was measured. SH-SY5Y cells were seeded at 1.0×10^5 cells/well in a 6-well plate, which is a lower component, and incubated at 37° C. for 1 day. […] Over time (upper side 0, 60 minutes; lower side 0, 5, 15, 30, and 60 minutes), the medium was sampled, the fluorescence intensity was measured using I-control (M1000) (TECAN), and the permeation amount was measured. Similar to Example 4, the permeation coefficient Papp (cm/sec) was calculated as follows."}}}
{"substance": "lactose-modified hydroxypropyl-β-cyclodextrin [Lac-HP-β-CyD]", "values": [{"measurement": "penetration to the brain (fluorescence intensity of organ)", "setting": "[1]", "result": "significantly penetrated to the brain as compared with HP-β-CyD"}, {"measurement": "cholesterol leakage into supernatant", "setting": "SH-SY5Y cells [2]", "result": "less cholesterol leakage than HP-β-CyD"}, {"measurement": "Aβ clearance / intracellular amyloid β accumulation", "setting": "SH-SY5Y cells [3]", "result": "normalized the Aβ clearance by reducing the amount of cholesterol in cells"}, {"measurement": "uptake into cells", "setting": "hCMEC/D3 cells", "result": "significantly taken up into the cells as compared with HP-β-CyD"}, {"measurement": "uptake into SH-SY5Y cells after BBB permeation", "setting": "SH-SY5Y cells [4]", "result": "significantly taken up into SH-SY5Y cells after BBB permeation as compared with HP-β-CyD"}]}
